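Grown in 96-well plates, cells were treated for 48 hours with each compound at five concentrations. Insufficient inhibition: endpoint recorded as highest concentration tested. Definition used: TGI = concentration required for complete inhibition of growth.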
What was measured:
Assay in all cases: growth of human tumour cells (NCI), 48 h
U251 CNS = tested on: U251 CNS
MALME-3M melanoma = tested on: MALME-3M melanoma
HCT-15 colon = tested on: HCT-15 colon
RXF 393 renal = tested on: RXF 393 renal
SF-268 CNS = tested on: SF-268 CNS
BT-549 breast = tested on: BT-549 breast
OVCAR-5 ovarian = tested on: OVCAR-5 ovarian
HL-60(TB) leukemia = tested on: HL-60(TB) leukemia
SK-MEL-28 melanoma = tested on: SK-MEL-28 melanoma
LOX IMVI melanoma = tested on: LOX IMVI melanoma
SR leukemia = tested on: SR leukemia
MDA-MB-435 = tested on: MDA-MB-435
HS 578T breast = tested on: HS 578T breast
NCI-H522 lung = tested on: NCI-H522 lung
SW-620 colon = tested on: SW-620 colon
UO-31 renal = tested on: UO-31 renal
RPMI-8226 leukemia = tested on: RPMI-8226 leukemia
786-0 renal = tested on: 786-0 renal
MDA-MB-231 breast = tested on: MDA-MB-231 breast
MDA-N = tested on: MDA-N
K-562 leukemia = tested on: K-562 leukemia
SK-MEL-5 melanoma = tested on: SK-MEL-5 melanoma
SF-295 CNS = tested on: SF-295 CNS
HOP-92 NSCLC = tested on: HOP-92 NSCLC
M14 melanoma = tested on: M14 melanoma
MCF7 breast = tested on: MCF7 breast
A549 NSCLC = tested on: A549 NSCLC
SN12C renal = tested on: SN12C renal
HOP-62 NSCLC = tested on: HOP-62 NSCLC
HT29 colon = tested on: HT29 colon
PC-3 prostate = tested on: PC-3 prostate
A498 renal = tested on: A498 renal
UACC-257 melanoma = tested on: UACC-257 melanoma
SF-539 CNS = tested on: SF-539 CNS
OVCAR-4 ovarian = tested on: OVCAR-4 ovarian
HCT-116 colon = tested on: HCT-116 colon
UACC-62 melanoma = tested on: UACC-62 melanoma
CCRF-CEM leukemia = tested on: CCRF-CEM leukemia
OVCAR-8 ovarian = tested on: OVCAR-8 ovarian
KM12 colon = tested on: KM12 colon
DU-145 prostate = tested on: DU-145 prostate
NCI-H460 lung = tested on: NCI-H460 lung
ACHN renal = tested on: ACHN renal
SNB-19 CNS = tested on: SNB-19 CNS
NCI-H23 lung = tested on: NCI-H23 lung
HCC-2998 colon = tested on: HCC-2998 colon
TK-10 renal = tested on: TK-10 renal
SK-OV-3 ovarian = tested on: SK-OV-3 ovarian
OVCAR-3 ovarian = tested on: OVCAR-3 ovarian
IGROV1 ovarian = tested on: IGROV1 ovarian
MOLT-4 leukemia = tested on: MOLT-4 leukemia
NCI/ADR-RES ovarian = tested on: NCI/ADR-RES ovarian
EKVX NSCLC = tested on: EKVX NSCLC
NCI-H226 lung = tested on: NCI-H226 lung
SNB-75 CNS = tested on: SNB-75 CNS
COLO 205 colon = tested on: COLO 205 colon
T-47D breast = tested on: T-47D breast
SK-MEL-2 melanoma = tested on: SK-MEL-2 melanoma
CAKI-1 renal = tested on: CAKI-1 renal

## O=C(Nn1c(-c2ccccc2)nc2ccccc2c1=O)c1ccccc1O
U251 CNS
  TGI: > 100 µM
MALME-3M melanoma
  TGI: > 100 µM
HCT-15 colon
  TGI: > 100 µM
RXF 393 renal
  TGI: > 100 µM
SF-268 CNS
  TGI: > 100 µM
BT-549 breast
  TGI: > 100 µM
OVCAR-5 ovarian
  TGI: > 100 µM
HL-60(TB) leukemia
  TGI: > 100 µM
SK-MEL-28 melanoma
  TGI: > 100 µM
LOX IMVI melanoma
  TGI: > 100 µM
SR leukemia
  TGI: > 100 µM
MDA-MB-435
  TGI: > 100 µM
HS 578T breast
  TGI: > 100 µM
NCI-H522 lung
  TGI: > 100 µM
SW-620 colon
  TGI: > 100 µM
UO-31 renal
  TGI: > 100 µM
RPMI-8226 leukemia
  TGI: > 100 µM
786-0 renal
  TGI: > 100 µM
MDA-MB-231 breast
  TGI: > 100 µM
MDA-N
  TGI: > 100 µM
K-562 leukemia
  TGI: > 100 µM
SK-MEL-5 melanoma
  TGI: 84.3 µM
SF-295 CNS
  TGI: > 100 µM
HOP-92 NSCLC
  TGI: > 100 µM
M14 melanoma
  TGI: > 100 µM
MCF7 breast
  TGI: > 100 µM
A549 NSCLC
  TGI: > 100 µM
SN12C renal
  TGI: > 100 µM
HOP-62 NSCLC
  TGI: > 100 µM
HT29 colon
  TGI: > 100 µM
PC-3 prostate
  TGI: > 100 µM
A498 renal
  TGI: > 100 µM
UACC-257 melanoma
  TGI: > 100 µM
SF-539 CNS
  TGI: > 100 µM
OVCAR-4 ovarian
  TGI: > 100 µM
HCT-116 colon
  TGI: > 100 µM
UACC-62 melanoma
  TGI: 77.2 µM
CCRF-CEM leukemia
  TGI: > 100 µM
OVCAR-8 ovarian
  TGI: > 100 µM
KM12 colon
  TGI: > 100 µM
DU-145 prostate
  TGI: > 100 µM
NCI-H460 lung
  TGI: > 100 µM
ACHN renal
  TGI: > 100 µM
SNB-19 CNS
  TGI: > 100 µM
NCI-H23 lung
  TGI: > 100 µM
HCC-2998 colon
  TGI: > 100 µM
TK-10 renal
  TGI: > 100 µM
SK-OV-3 ovarian
  TGI: > 100 µM
OVCAR-3 ovarian
  TGI: > 100 µM
IGROV1 ovarian
  TGI: > 100 µM
MOLT-4 leukemia
  TGI: > 100 µM
NCI/ADR-RES ovarian
  TGI: > 100 µM
EKVX NSCLC
  TGI: > 100 µM
NCI-H226 lung
  TGI: > 100 µM
SNB-75 CNS
  TGI: > 100 µM
COLO 205 colon
  TGI: > 100 µM
T-47D breast
  TGI: > 100 µM

## O=[N+]([O-])c1cccc(N=Nc2c(O)c(S(=O)(=O)O)cc3cc(S(=O)(=O)O)ccc23)c1
U251 CNS
  TGI: > 100 µM
MALME-3M melanoma
  TGI: > 100 µM
HCT-15 colon
  TGI: > 100 µM
RXF 393 renal
  TGI: > 100 µM
SF-268 CNS
  TGI: > 100 µM
BT-549 breast
  TGI: > 100 µM
OVCAR-5 ovarian
  TGI: > 100 µM
HL-60(TB) leukemia
  TGI: > 100 µM
SK-MEL-28 melanoma
  TGI: > 100 µM
SR leukemia
  TGI: > 100 µM
MDA-MB-435
  TGI: > 100 µM
HS 578T breast
  TGI: > 100 µM
NCI-H522 lung
  TGI: > 100 µM
SW-620 colon
  TGI: > 100 µM
UO-31 renal
  TGI: > 100 µM
SK-MEL-2 melanoma
  TGI: > 100 µM
786-0 renal
  TGI: > 100 µM
MDA-MB-231 breast
  TGI: > 100 µM
MDA-N
  TGI: > 100 µM
K-562 leukemia
  TGI: > 100 µM
SK-MEL-5 melanoma
  TGI: > 100 µM
SF-295 CNS
  TGI: > 100 µM
HOP-92 NSCLC
  TGI: > 100 µM
M14 melanoma
  TGI: > 100 µM
MCF7 breast
  TGI: > 100 µM
A549 NSCLC
  TGI: > 100 µM
SN12C renal
  TGI: > 100 µM
CAKI-1 renal
  TGI: > 100 µM
HOP-62 NSCLC
  TGI: > 100 µM
PC-3 prostate
  TGI: > 100 µM
A498 renal
  TGI: > 100 µM
UACC-257 melanoma
  TGI: > 100 µM
SF-539 CNS
  TGI: > 100 µM
OVCAR-4 ovarian
  TGI: > 100 µM
HCT-116 colon
  TGI: > 100 µM
UACC-62 melanoma
  TGI: > 100 µM
CCRF-CEM leukemia
  TGI: > 100 µM
OVCAR-8 ovarian
  TGI: > 100 µM
KM12 colon
  TGI: > 100 µM
DU-145 prostate
  TGI: > 100 µM
NCI-H460 lung
  TGI: > 100 µM
ACHN renal
  TGI: > 100 µM
SNB-19 CNS
  TGI: > 100 µM
NCI-H23 lung
  TGI: > 100 µM
HCC-2998 colon
  TGI: > 100 µM
TK-10 renal
  TGI: > 100 µM
SK-OV-3 ovarian
  TGI: > 100 µM
OVCAR-3 ovarian
  TGI: > 100 µM
IGROV1 ovarian
  TGI: > 100 µM
MOLT-4 leukemia
  TGI: > 100 µM
NCI/ADR-RES ovarian
  TGI: > 100 µM
EKVX NSCLC
  TGI: > 100 µM
NCI-H226 lung
  TGI: > 100 µM
SNB-75 CNS
  TGI: > 100 µM
COLO 205 colon
  TGI: > 100 µM
T-47D breast
  TGI: > 100 µM
